Experimental data published in patent US11352358B2, “FXR agonist” (XUANZHU BIOPHARMACEUTICAL CO., LTD., priority 2017, dated 2022).
pEC50, pIC50: −log10 of the molar value.

How the values were obtained:
BSEP mRNA in HepG2 cells = test: Relative expression of BSEP mRNA in HepG2 cells, EC50 (Experimental Example 3); assay type: cell-based; conditions: Homo sapiens, 24 hrs
Protocol: (§1) compounds of the present invention (for their chemical names and preparation methods, see the preparation example for each compound).
(§2) HepG2 cell: human liver cancer cell;
BSEP: bile salt export pump;
(§3) Control: compound 1-1B with a structure shown as follows, prepared according to a prior art method (for detailed information, see patent application WO2012087519A1).
(§4) Cells were digested with pancreatin and collected, and the concentration of the cells was determined; according to the counting result, the cells were resuspended to a density of 7.5×10^5 cells/mL; 2 mL of the cell suspension was inoculated in each well of a 6-well cell culture plate; and the culture plate was placed in an incubator and cultured under the conditions of 37° C. and 5% CO2 for 24 hrs.
(§5) The compounds were diluted to 3000, 1000, 200, 8, 1.6, 0.32, 0.0128, 0.00256 and 0.000512 μM with DMSO. Compound solutions of different concentrations obtained in the previous step were further diluted by 1,000 times with media to obtain working solutions, and a medium containing 0.1% of DMSO was adopted as a control group. The cell culture plate was taken out from the incubator, the medium was removed, and the working solutions and the control medium were added. The culture plate was placed back into the incubator and cultured under the conditions of 37° C. and 5% CO2 for 24 hrs. […]

[1] = system: CYP7A1 mRNA in HepG2 cells; test: Relative expression of CYP7A1 mRNA in HepG2 cells, IC50 (Experimental Example 3); assay type: cell-based; conditions: Homo sapiens, 24 hrs
Protocol: as §1, §2
CYP7A1: cholesterol 7-alpha hydroxylase;
as §3, §4, §5

SHP mRNA in AML12 cells = test: Relative expression of SHP mRNA in AML12 cells, EC50 (Experimental Example 4); assay type: cell-based; conditions: Mus musculus, 24 hrs
Protocol: as §1
AML12 cells: mouse liver cells.
as §3
as §4, with “of 7.5×10^4” for “of 7.5×10^5”, “cells/mL; 1” for “cells/mL; 2”, “a 12-well” for “a 6-well”
The compound were diluted to 1000, 200, 8, 1.6, 0.32, 0.128, 0.0256 and 0.00512 μM with DMSO. Compound solutions of different concentrations obtained in the previous step were further diluted by 1000 times with media to obtain working solutions, and a medium containing 0.1% of DMSO was adopted as a control group. The cell culture plate was taken out from the incubator, the medium was removed, and the working solutions and the control medium were added. The culture plate was placed back into the incubator and cultured under the conditions of 37° C. and 5% CO2 for 24 hrs.
after treatment for 24 hrs, the cell culture plate was taken out from the incubator, and the medium was removed from the plate; the cells were rinsed three times with pre-cooled (4° C.) PBS (phosphate buffer solution); and 200 μL of pancreatin (preheated to 37° C.) was added to each well, and the plate was then gently shaken such that the pancreatin could evenly cover the plate bottom. The culture plate was then placed back into the incubator and incubated until the cells were separated from the plate bottom. 1 mL of medium was added to terminate digestion. […]

[2] = Liver microsome metabolism stability, human liver microsome; assay type: in vitro ADME; conditions: 0.5 mg protein/mL, test sample 1 μM, β-NADPH
Protocol: (§6) Test samples: the homemade compounds 1, 2, 4 and 5 of the present invention (for their chemical names and preparation methods, see the preparation example for each compound).
(§7) a mixed liver microsomes of SD rat and human both purchased from XenoTech, with batch Nos.: 1410271 (SD rat) and 1410013 (human) respectively, wherein the microsomal protein concentrations both were 20 mg mL^−1;
(§8) experimental promoter β-NADPH purchased from Roche (batch No.: 524F0231); and a phosphate buffer solution (pH 7.4) made in the lab.
(§9) An appropriate amount of the test sample powder was weighed accurately, and dissolved in an appropriate amount of dimethyl sulfoxide (DMSO) to a concentration of 1 mM; and the solution was then diluted by 20 times with methanol to yield a 50 μM working solution.
(§10) (1) According to the proportions in table 3 “Composition of the incubation system for liver microsome metabolism stability experiment” above, for each compound, 6 mL of PBS (100 mM), 0.6 mL of MgCl2 solution (20 mM) and 3.66 mL of H2O were made into a mixed solution 1 for the incubation system (not containing the microsomes, the test sample and β-NADPH).
(§11) (2) Liver microsomes (20 mg protein/mL) were taken from a refrigerator (−80° C.), and were placed on a thermostatic water bath oscillator (37° C.) and pre-incubated for 3 mins.
(§12) (3) For each compound, 1.88 mL of the mixed solution 1 for the incubation system was added with 55 μL of microsomes to obtain a mixed solution 2 for the incubation system (not containing the test sample and β-NADPH).
(§13) (4) Sample group (containing the microsomes and D-NADPH): 616 μL of mixed solution 2 for the incubation system was added with 14 μL of the test sample working solution (with a concentration of 50 μM), and with 70 μL of R-NADPH working solution (10 mM). The resulted solution was well mixed, and the resulted solution was then duplicated. The time points of sampling were at 0 min, 5th min, 10th min, 20th min, 30th min and 60th min.
(§14) (5) Control group (containing the microsomes, and water instead of D-NADPH): 264 μL of mixed solution 2 for the incubation system was added with 6 μL of the test sample working solution (50 μM), and with 30 μL of water. The resulted solution was well mixed, and the resulted solution was then duplicated. The time points of sampling were at 0 min and 60th min.
(§15) (6) 50 μL of sample was taken from an incubating sample tube at each predetermined time point, added to a terminating sample tube (containing 300 μL of cold terminator), and vortexed; and the reaction was terminated.
(§16) (7) after 10 mins of vortexing, the solution was centrifuged for 5 mins (12,000 rpm).
(§17) (8) 100 μL of supernatant was taken and added with 100 μL of water, and the mixture solution was thoroughly vortexed; and the solution was then analyzed by LC-MS/MS.
(§18) Percentages of residual contents were calculated according to the following formula.

[3] = Liver microsome metabolism stability, rat liver microsome; assay type: in vitro ADME, SD rat; conditions: 0.5 mg protein/mL, test sample 1 μM, β-NADPH
Protocol: as §6, §7, §8, §9, §10, §11, §12, §13, §14, §15, §16, §17, §18

SHP mRNA in HepG2 cells = test: Relative expression of SHP mRNA in HepG2 cells, EC50 (Experimental Example 3); assay type: cell-based; conditions: Homo sapiens, 24 hrs
Protocol: as §1, §2
SHP: small heterodimer partner;
as §3, §4, §5

- pIC50 [1]: 10.70
- pEC50 (SHP mRNA in AML12 cells): 9.05
- Residual content (%) after 60 minutes of incubation [2]: 96%
- Residual content (%) after 60 minutes of incubation [3]: 73%
- pEC50 (SHP mRNA in HepG2 cells): 10.05
Structure (SMILES): O=C(O)c1cc(F)c2nc(N3C[C@@H]4C[C@H]3C[C@H]4OCc3c(-c4ccccc4OC(F)(F)F)noc3C3CC3)sc2c1 [Compound 8, 2-((1S, 4S, 5R)-5-((5-cyclopropyl-3-(2-(trifluoromethoxy)phenyl)isoxazol-4-yl)methoxy)-2-azabicyclo[2.2.1]heptan-2-yl)-4-fluorobenzo[d]thiazole-6-formic acid]
- pEC50 (BSEP mRNA in HepG2 cells): 9.46
